Laboratory results: PubChem BioAssay AID2060905 (Molecular Pharmacology Branch, DTP, NCI, 2025)

System: 282377-053-R-J1-PDC complex spheroid viability
Assay: Anticancer human tumor 282377-053-R-J1-PDC patient-derived colon adenocarcinoma cell line growth inhibition [RAS]
Conditions: for IC50: curve of first compound; for viability, T/C: stronger effect = lower value
Summary of the method: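 Tumour cells grown as complex spheroids with HUVEC endothelial cells and mesenchymal stem cells, treated with RAS pathway inhibitor combinations. Each agent spans half-log steps from near clinical Cmax, or 10 microM where Cmax is unknown.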

[1] = second compound 0.00316 µM, first compound 0.0316 µM
[2] = second compound 0.00316 µM, first compound 0.1 µM
[3] = second compound 0.01 µM, first compound 0.0316 µM
[4] = second compound 0.01 µM, first compound 0.1 µM
[5] = second compound 0.0316 µM, first compound 0.0316 µM
[6] = second compound 0.0316 µM, first compound 0.1 µM
[7] = second compound 0.1 µM, first compound 0.0316 µM
[8] = second compound 0.1 µM, first compound 0.1 µM
[9] = second compound 0.316 µM, first compound 0.0316 µM
[10] = second compound 0.316 µM, first compound 0.1 µM
[11] = second compound 1 µM, first compound 0.0316 µM
[12] = second compound 1 µM, first compound 0.1 µM
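Also: spheroids exposed to agents for seven days before readout.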
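For viability, T/C in this document: luminescence viability as percent of DMSO vehicle control wells.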

For `CC(C)NCC(C(=O)N1CCN(c2ncnc3c2C(C)CC3O)CC1)c1ccc(Cl)cc1` (centres undefined) + C=CC(=O)N1CCN(c2nc(OCC3CCCN3C)nc3c(F)c(-c4nc(N)cc(C)c4C(F)(F)F)c(Cl)cc23)C(C)C1, the IC50 (second compound 0.00316 µM) was > 10000 nM, the IC50 (second compound 0.01 µM) was > 10000 nM and the IC50 (second compound 0.0316 µM) was > 10000 nM. The IC50 (second compound 0.1 µM) was > 10000 nM, the IC50 (second compound 0.316 µM) was > 10000 nM and the IC50 (second compound 1 µM) was > 10000 nM. It also gave a viability, T/C [1] of 104%, a viability, T/C [2] of 108% and a viability, T/C (second compound 0.00316 µM, first compound 0.316 µM) of 96.2%. For the same compound, the viability, T/C (second compound 0.00316 µM, first compound 1 µM) was 94.1%, the viability, T/C (second compound 0.00316 µM, first compound 3.16 µM) was 88.8% and the viability, T/C (second compound 0.00316 µM, first compound 10 µM) was 84.7%. The viability, T/C [3] was 99.3%, the viability, T/C [4] was 107% and the viability, T/C (second compound 0.01 µM, first compound 0.316 µM) was 83.2%. It also gave a viability, T/C (second compound 0.01 µM, first compound 1 µM) of 110%, a viability, T/C (second compound 0.01 µM, first compound 3.16 µM) of 89.5% and a viability, T/C (second compound 0.01 µM, first compound 10 µM) of 75.6%. The viability, T/C [5] was 98.2%, the viability, T/C [6] was 99.3% and the viability, T/C (second compound 0.0316 µM, first compound 0.316 µM) was 89.3%. For the same compound, the viability, T/C (second compound 0.0316 µM, first compound 1 µM) was 97.3%, the viability, T/C (second compound 0.0316 µM, first compound 3.16 µM) was 91.8% and the viability, T/C (second compound 0.0316 µM, first compound 10 µM) was 85.4%. The viability, T/C [7] was 97.9%, the viability, T/C [8] was 105% and the viability, T/C (second compound 0.1 µM, first compound 0.316 µM) was 98.7%. For the same compound, the viability, T/C (second compound 0.1 µM, first compound 1 µM) was 95.8%, the viability, T/C (second compound 0.1 µM, first compound 3.16 µM) was 82.7% and the viability, T/C (second compound 0.1 µM, first compound 10 µM) was 79.8%. The viability, T/C [9] was 101%, the viability, T/C [10] was 96.7% and the viability, T/C (second compound 0.316 µM, first compound 0.316 µM) was 96.2%. The viability, T/C (second compound 0.316 µM, first compound 1 µM) was 98%, the viability, T/C (second compound 0.316 µM, first compound 3.16 µM) was 101% and the viability, T/C (second compound 0.316 µM, first compound 10 µM) was 84.8%. It also gave a viability, T/C [11] of 100%, a viability, T/C [12] of 88.5% and a viability, T/C (second compound 1 µM, first compound 0.316 µM) of 118%. It also gave a viability, T/C (second compound 1 µM, first compound 1 µM) of 78.9%, a viability, T/C (second compound 1 µM, first compound 3.16 µM) of 68.7% and a viability, T/C (second compound 1 µM, first compound 10 µM) of 76%.

`CC(C)n1nc(-c2ccc3oc(N)nc3c2)c2c(N)ncnc21` + C=CC(=O)N1CCN(c2nc(OCC3CCCN3C)nc3c(F)c(-c4nc(N)cc(C)c4C(F)(F)F)c(Cl)cc23)C(C)C1 was tested, and the IC50 (second compound 0.00316 µM) was > 100 nM, the IC50 (second compound 0.01 µM) was 89.8 nM and the IC50 (second compound 0.0316 µM) was 94.1 nM. The IC50 (second compound 0.1 µM) was 85.9 nM, the IC50 (second compound 0.316 µM) was > 100 nM and the IC50 (second compound 1 µM) was > 100 nM. For the same compound, the viability, T/C (second compound 0.00316 µM, first compound 0.000316 µM) was 96.6%, the viability, T/C (second compound 0.00316 µM, first compound 0.001 µM) was 86.9% and the viability, T/C (second compound 0.00316 µM, first compound 0.00316 µM) was 80%. For the same compound, the viability, T/C (second compound 0.00316 µM, first compound 0.01 µM) was 87.7%, the viability, T/C [1] was 62.8% and the viability, T/C [2] was 54.5%. For the same compound, the viability, T/C (second compound 0.01 µM, first compound 0.000316 µM) was 85.3%, the viability, T/C (second compound 0.01 µM, first compound 0.001 µM) was 81% and the viability, T/C (second compound 0.01 µM, first compound 0.00316 µM) was 74.5%. For the same compound, the viability, T/C (second compound 0.01 µM, first compound 0.01 µM) was 87%, the viability, T/C [3] was 68.8% and the viability, T/C [4] was 47.8%. For the same compound, the viability, T/C (second compound 0.0316 µM, first compound 0.000316 µM) was 92.2%, the viability, T/C (second compound 0.0316 µM, first compound 0.001 µM) was 98.3% and the viability, T/C (second compound 0.0316 µM, first compound 0.00316 µM) was 87.5%. It also gave a viability, T/C (second compound 0.0316 µM, first compound 0.01 µM) of 82.5%, a viability, T/C [5] of 97.5% and a viability, T/C [6] of 47.7%. The viability, T/C (second compound 0.1 µM, first compound 0.000316 µM) was 81.7%, the viability, T/C (second compound 0.1 µM, first compound 0.001 µM) was 105% and the viability, T/C (second compound 0.1 µM, first compound 0.00316 µM) was 91%. It also gave a viability, T/C (second compound 0.1 µM, first compound 0.01 µM) of 78.3%, a viability, T/C [7] of 77.5% and a viability, T/C [8] of 45.7%. It also gave a viability, T/C (second compound 0.316 µM, first compound 0.000316 µM) of 110%, a viability, T/C (second compound 0.316 µM, first compound 0.001 µM) of 103% and a viability, T/C (second compound 0.316 µM, first compound 0.00316 µM) of 109%. It also gave a viability, T/C (second compound 0.316 µM, first compound 0.01 µM) of 68.3%, a viability, T/C [9] of 61.9% and a viability, T/C [10] of 48.6%. It also gave a viability, T/C (second compound 1 µM, first compound 0.000316 µM) of 99.9%, a viability, T/C (second compound 1 µM, first compound 0.001 µM) of 85.1% and a viability, T/C (second compound 1 µM, first compound 0.00316 µM) of 112%. It also gave a viability, T/C (second compound 1 µM, first compound 0.01 µM) of 67.7%, a viability, T/C [11] of 55.4% and a viability, T/C [12] of 61.9%.
